In patent publication US8404650B2, “Methods of treating cancer with doxazolidine and prodrugs thereof” (priority 2005, dated 2013):
Where two headings read alike, the source gives them in different places.

Key:
[1] = Hydrolysis of Doxaz to Doxorubicin in buffers (HPLC); assay type: physicochemical
Description: Doxaz stability in DMSO. Doxaz (22 mg, 40 μmol) was dissolve in 1 mL of DMSO-d6 (stored over activated 4 Å molecular sieves) and analyzed for purity by 500 MHz ^1H NMR. After a 10× dilution with DMSO to a concentration of 4 mM, the stability of Doxaz was then followed by HPLC, observing the relative peak area of the Doxaz peak at 6.6 min with constant injection volume. Doxaz hydrolyzed at a rate of <2% per day in DMSO. Doxaz stability in buffers. HPLC buffer, pH 7.4, 20 mM TEAA, was used for the measurement of hydrolysis of Doxaz. The buffer's pH was adjusted as needed with either triethyl amine or acetic acid to pH 10.4, 9.0, 6.0 and 5.0 with one sample left unchanged at pH 7.4. A volume of 1950 μL of each of these solutions was added to a conical vial and then cooled to 14° C. 50 μL of a 4 mM solution of Doxaz was added to each tube and hydrolysis was followed by HPLC with injections every 10 min. The pH of the buffers was measured before the addition of drug and 1.5 h after the start of hydrolysis.
Both DoxF and Doxaz are relatively stable in dry chloroform and dry DMSO over a period of days. In dry DMSO, Doxaz hydrolyzes to Doxorubicin at less than 2% per day at ambient temperature. In aqueous medium, DoxF is very hydrolytically unstable with respect to formation of Doxaz, and Doxaz is hydrolytically unstable with respect to formation of Doxorubicin. […] Consequently, HPLC was used to monitor the kinetics of hydrolysis of Doxaz to Doxorubicin at 14° C. as a function of pH. […] The hydrolysis was too rapid to measure the rate at 37° C. Extrapolation using the rough rule that the rate will double for every 10° C. increase in temperature, gives an estimation of the half-life at pH 7.4 and 37° C. of 3 to 4 min. The rate constant increases with decreasing pH except for the transition from pH 10.4 to pH 9.0 where the rate constant decreases slightly. At pH 10.5 the solution appears purple, indicative of deprotonation at one of the hydroquinone functional groups. […] The higher rate at low pH is consistent with acid catalysis, probably assisting hydrolytic ring opening as the slow step. […]

[2] = Uptake of pentyl carbamate relative to Dox, flow cytometry, with and without fetal bovine serum; assay type: cell-based; conditions: 10% fetal bovine serum, flow cytometry, 3 h
Description: Uptake of the pentyl carbamate relative to uptake of Dox was measured by flow cytometry, monitoring fluorescence of the Dox fluorophore as a measure of drug in cells. The measurements were performed over a period of 3 h in the presence and absence of fetal bovine serum, and the results are shown in FIG. 4. […] Further, the presence of 10% fetal bovine serum decreased the uptake of doxorubicin and the pentyl carbamate by about 25%. The more rapid uptake of the pentyl carbamate in the presence and absence of serum probably reflects its increased hydrophobicity relative to that of doxorubicin which is a cation at physiological pH. Increased hydrophobicity may also be the explanation for the effect of serum on the uptake of the carbamate; namely, the carbamate binds to serum proteins reducing drug uptake.

human plasmin = human plasmin (Homo sapiens, UniProt P00747); test: Plasmin activation of prodrug and release of Doxaz (HPLC); assay type: biochemical; conditions: human, human plasmin; 37° C.; read-out: Half-life in the presence of plasmin
Description: Both Formulas IV and V were incubated with 15 μg/ml human plasmin and monitored by HPLC at 37° C. Just 4 min after the addition of plasmin, 20 percent of compound 10 was converted to Doxaz and roughly 50% of that Doxaz had hydrolyzed to Doxorubicin. Within 23 minutes, nearly all of the prodrug was converted to Doxaz and subsequently hydrolyzed to Doxorubicin.

[3] = test system: SK-HEP-1 liver cancer cells; test: Drug uptake by SK-HEP-1 cells, flow cytometry; assay type: cell-based; conditions: in the presence of fetal bovine serum
Description: Uptake of pentyl PABC-Doxaz and Dox by multidrug resistant MCF-7/Adr breast cancer cells and SK-HEP-1 liver cancer cells in the presence of fetal bovine serum was determined by flow cytometry using drug fluorescence as a measure of drug in cells.

Chain of human plasmin (P00747 581-810 limits assumed): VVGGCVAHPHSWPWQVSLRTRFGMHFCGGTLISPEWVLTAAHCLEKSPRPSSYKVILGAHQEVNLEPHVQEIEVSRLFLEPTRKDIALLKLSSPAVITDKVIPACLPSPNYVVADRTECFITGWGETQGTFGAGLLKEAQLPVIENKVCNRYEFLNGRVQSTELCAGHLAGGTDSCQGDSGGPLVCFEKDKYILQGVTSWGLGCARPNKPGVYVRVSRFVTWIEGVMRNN
Chain of human plasmin (P00747 97-580 partner limits assumed): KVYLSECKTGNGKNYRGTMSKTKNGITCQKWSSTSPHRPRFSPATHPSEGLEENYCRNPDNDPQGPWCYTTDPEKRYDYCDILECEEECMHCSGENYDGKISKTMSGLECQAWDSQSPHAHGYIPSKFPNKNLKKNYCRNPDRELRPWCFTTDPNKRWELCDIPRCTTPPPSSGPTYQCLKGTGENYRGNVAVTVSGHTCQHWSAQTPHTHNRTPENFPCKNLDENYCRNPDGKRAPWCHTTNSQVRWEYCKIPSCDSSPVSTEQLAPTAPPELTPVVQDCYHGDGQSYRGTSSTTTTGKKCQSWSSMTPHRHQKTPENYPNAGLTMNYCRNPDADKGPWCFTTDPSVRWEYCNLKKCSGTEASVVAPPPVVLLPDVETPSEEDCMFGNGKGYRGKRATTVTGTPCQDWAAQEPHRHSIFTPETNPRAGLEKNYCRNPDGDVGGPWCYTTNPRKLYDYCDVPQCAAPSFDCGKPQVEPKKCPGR

Structure (SMILES): COc1cccc2c1C(=O)c1c(O)c3c(c(O)c1C2=O)C[C@@](O)(C(=O)CO)C[C@@H]3O[C@H]1C[C@@H]2NCO[C@@H]2[C@H](C)O1 [Doxaz, Doxazolidine]
- half-life at 100 µM ([1]; 20 mM TEAA buffer, pH 7.4, aqueous media, pH 7.4, 37° C., extrapolated from 14° C. (rate doubles per 10° C.), read-out: Half-life for hydrolysis of Doxaz to Doxorubicin at 37° C.): 3 to 4 min
- half-life at 100 µM ([1]; 20 mM TEAA buffer, pH 7.5, pH 7.5, 14° C., 20 mM TEAA buffer, read-out: Half-life for hydrolysis of Doxaz to Doxorubicin at 14° C.): 16 min
- half-life at 100 µM ([1]; 20 mM triethylammonium acetate (TEAA) buffer, pH 7.4, after prodrug activation near a tumor / in vivo, read-out: Half-life of Doxaz (conversion to Doxorubicin) after release): ~3 min

Structure (SMILES): COc1cccc2c1C(=O)c1c(O)c3c(c(O)c1C2=O)C[C@@](O)(C(=O)CO)C[C@@H]3O[C@H]1C[C@H](N)[C@H](O)[C@H](C)O1 [Doxorubicin, reference compound]
- Decrease of uptake by 10% fetal bovine serum [2]: about 25%

Structure (SMILES): COc1cccc2c1C(=O)c1c(O)c3c(c(O)c1C2=O)C[C@@](O)(C(=O)CO)C[C@@H]3O[C@H]1C[C@H]2[C@H](OCN2C(=O)OCc2ccc(NC(=O)[C@H](CCCCN)NC(=O)[C@H](Cc3ccccc3)NC(=O)[C@@H](C)N)cc2)[C@H](C)O1 [Formula IV, D-Ala-L-Phe-L-Lys-p-aminobenzyloxycarbonyl-Doxaz]
- half-life (human plasmin): ~6 min

Structure (SMILES): CCCCCOC(=O)Nc1ccc(COC(=O)N2COC3C(C)OC(OC4CC(O)(C(=O)CO)Cc5c(O)c6c(c(O)c54)C(=O)c4c(OC)cccc4C6=O)CC32)cc1 (stereo not drawn) [Pentyl PABC-Doxaz, Pentyl 4-(N-doxazolidinylcarbonyloxymethyl)phenylcarbamate]
- Uptake relative to Dox, SK-HEP-1 [3]: taken up much better
